In US9783536B2, “Nitrogen-containing heterocyclic compound or salt thereof” (FUJIFILM Corporation, priority 2013, dated 2017) one finds IC50 data, which are given here for 37 compounds.

The target of assay [1] is T1, GST fusion human ERK2 protein (Homo sapiens, UniProt P28482).
T1 construct: purchased Carna Biosciences, Inc; host or cells: E. coli expression system
Nature of the assay: ERK2 enzyme assay (2). The note with it: ERK2 enzyme assay (2); read-out: ERK2 enzyme inhibitory activity (2). It is filed as biochemical. Summed up:
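GST-tagged human ERK2 expressed in E. coli (1.25 nmol/L) was preincubated with compound for 15 min at room temperature in pH 7.5 Hepes buffer with MgCl2, DTT and Brij35. Reaction with FL-Peptide 8 (final 4.25 μmol/L) and ATP (final 1 mmol/L) ran 120 min at 25 °C; EDTA stopped it, and phosphorylated peptide was quantified by mobility-shift separation to derive IC50.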

Another assay has as its target T2, human PI3Kα protein (Homo sapiens, UniProt P42336).
T2 construct: purchased Carna Biosciences, Inc; host or cells: baculovirus expression system
The experiment in a line: PI3Kα enzyme assay (ADP-Glo). It is filed as biochemical. The settings on record: read-out: PI3Kα enzyme inhibitory activity. The gist of the method: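 Biotinylated human PI3Kα (baculovirus-expressed, 4.5 nmol/L) pre-incubated 15 min with compound in Tris-HCl pH 7.5, MgCl2, BSA; reaction 60 min at 25° C with 50 μmol/L PIP2 and 100 μmol/L ATP final. ADP quantified by ADP-Glo luminescence; IC50 calculated.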
For orientation: In ADP-Glo the light output rises with the ADP produced.

Molecules are shown by their SMILES. A value given as a limit tells only on which side of the number the result lay.

T2 sequence (P42336 whole entry): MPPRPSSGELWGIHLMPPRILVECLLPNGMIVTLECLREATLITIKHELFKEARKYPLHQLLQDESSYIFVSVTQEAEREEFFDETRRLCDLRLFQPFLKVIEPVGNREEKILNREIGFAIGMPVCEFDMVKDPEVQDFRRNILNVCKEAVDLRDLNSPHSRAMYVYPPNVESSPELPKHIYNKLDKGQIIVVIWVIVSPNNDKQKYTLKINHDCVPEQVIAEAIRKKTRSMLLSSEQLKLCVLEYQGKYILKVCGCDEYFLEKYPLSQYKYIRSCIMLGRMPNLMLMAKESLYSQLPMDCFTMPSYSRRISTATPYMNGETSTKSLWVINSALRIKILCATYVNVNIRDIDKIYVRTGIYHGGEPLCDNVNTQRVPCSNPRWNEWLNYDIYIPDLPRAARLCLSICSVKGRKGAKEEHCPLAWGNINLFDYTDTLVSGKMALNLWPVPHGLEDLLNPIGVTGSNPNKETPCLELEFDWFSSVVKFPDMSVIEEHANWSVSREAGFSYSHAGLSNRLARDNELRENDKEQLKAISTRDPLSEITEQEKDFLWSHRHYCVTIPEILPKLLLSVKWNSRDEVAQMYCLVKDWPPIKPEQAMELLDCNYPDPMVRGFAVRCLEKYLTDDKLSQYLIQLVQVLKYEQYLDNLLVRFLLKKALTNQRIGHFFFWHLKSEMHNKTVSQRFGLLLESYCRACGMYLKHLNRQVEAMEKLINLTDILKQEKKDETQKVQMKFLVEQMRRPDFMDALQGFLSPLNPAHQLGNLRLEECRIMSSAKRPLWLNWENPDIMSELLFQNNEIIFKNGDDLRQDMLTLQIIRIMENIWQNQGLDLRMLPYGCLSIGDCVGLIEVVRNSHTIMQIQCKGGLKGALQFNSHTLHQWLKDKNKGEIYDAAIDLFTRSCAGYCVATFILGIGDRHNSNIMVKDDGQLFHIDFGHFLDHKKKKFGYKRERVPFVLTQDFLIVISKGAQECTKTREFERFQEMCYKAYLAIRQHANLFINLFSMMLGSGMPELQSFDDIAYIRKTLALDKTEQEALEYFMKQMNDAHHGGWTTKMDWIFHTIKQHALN
T2 sequence (P27986 whole entry partner): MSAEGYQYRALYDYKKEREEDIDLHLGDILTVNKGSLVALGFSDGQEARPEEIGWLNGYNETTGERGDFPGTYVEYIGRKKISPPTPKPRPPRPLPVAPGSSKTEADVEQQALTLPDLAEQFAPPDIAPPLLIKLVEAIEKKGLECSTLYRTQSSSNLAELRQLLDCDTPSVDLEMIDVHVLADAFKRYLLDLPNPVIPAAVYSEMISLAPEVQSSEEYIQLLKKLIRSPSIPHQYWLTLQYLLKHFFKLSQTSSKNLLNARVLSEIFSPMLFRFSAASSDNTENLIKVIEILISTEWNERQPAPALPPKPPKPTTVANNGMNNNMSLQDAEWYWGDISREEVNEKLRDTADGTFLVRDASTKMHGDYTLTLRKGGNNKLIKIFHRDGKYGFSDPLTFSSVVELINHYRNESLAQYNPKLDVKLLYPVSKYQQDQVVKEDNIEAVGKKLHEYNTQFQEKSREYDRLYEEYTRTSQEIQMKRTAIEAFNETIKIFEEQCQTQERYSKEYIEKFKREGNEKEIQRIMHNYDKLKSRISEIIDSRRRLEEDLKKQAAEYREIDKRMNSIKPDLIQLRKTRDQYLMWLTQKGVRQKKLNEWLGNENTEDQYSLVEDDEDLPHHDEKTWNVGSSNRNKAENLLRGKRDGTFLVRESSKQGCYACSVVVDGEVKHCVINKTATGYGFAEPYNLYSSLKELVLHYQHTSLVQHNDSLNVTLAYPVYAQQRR
T1 sequence (P28482 whole entry, the tested form may be a part): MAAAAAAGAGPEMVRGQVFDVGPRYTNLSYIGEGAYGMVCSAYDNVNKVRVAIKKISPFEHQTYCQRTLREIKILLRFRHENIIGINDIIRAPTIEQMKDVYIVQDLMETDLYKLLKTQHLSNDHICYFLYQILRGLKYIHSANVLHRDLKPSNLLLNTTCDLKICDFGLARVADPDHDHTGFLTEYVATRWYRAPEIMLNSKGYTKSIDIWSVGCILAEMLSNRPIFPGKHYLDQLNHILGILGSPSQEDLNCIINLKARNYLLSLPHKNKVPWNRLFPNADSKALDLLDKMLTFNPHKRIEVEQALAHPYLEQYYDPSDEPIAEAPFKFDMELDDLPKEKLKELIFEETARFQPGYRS

`CC(C)N1CC(OCCn2cc(-c3cnc4ccc(Nc5cc(CC6CCCCC6)cnn5)nc4c3)cn2)C1` [Example 0819]: the IC50 (in assay [1]; on human PI3Kα protein) was less than 1 µM each time.
Take `CC(C)c1cnnc(Nc2ccc3ncc(-c4cn(C)nc4Oc4ccccc4)cc3n2)c1` [Example 0820]: the IC50 (in assay [1]; at human PI3Kα protein) was less than 1 µM each time.
As to `CC(C)c1cnnc(Nc2ccc3ncc(-c4cn(C)nc4COC4CN(C(=O)OC(C)(C)C)C4)cc3n2)c1` [Example 0821, tert-Butyl 3-((4-(6-((5-isopropylpyridazin-3-yl)amino)-1,5-naphthyridin-3-yl)-1-methyl-1H-pyrazol-3-yl)methoxy)azetidine-1-carboxylate], the IC50 (in assay [1]; on human PI3Kα protein) was less than 1 µM throughout.
For the compound `CC(C)c1cnnc(Nc2ccc3ncc(-c4cn(C)nc4COC4CNC4)cc3n2)c1` [Example 0822, 7-(3-((Azetidin-3-yloxy)methyl)-1-methyl-1H-pyrazol-4-yl)-N-(5-isopropylpyridazin-3-yl)-1,5-naphthyridine-2-amine], the IC50 (in assay [1]; at human PI3Kα protein) was less than 1 µM throughout.
For the compound `CC(C)c1cnnc(Nc2ccc3ncc(-c4cn(C)nc4COC4CN(C)C4)cc3n2)c1` [Example 0823, N-(5-isopropylpyridazin-3-yl)-7-(1-methyl-3-(((1-methylazetidin-3-yl)oxy)methyl)-1H-pyrazol-4-yl)-1,5-naphthyridine-2-amine], the IC50 (in assay [1]; on human PI3Kα protein) was less than 1 µM throughout.
Regarding `CC(C)c1cnnc(Nc2ccc3ncc(-c4cn(C)nc4Cc4cccnc4)cc3n2)c1` [Example 0824, N-(5-isopropylpyridazin-3-yl)-7-(1-methyl-3-(pyridin-3-ylmethyl)-1H-pyrazol-4-yl)-1,5-naphthyridine-2-amine], the IC50 (in assay [1]; on human PI3Kα protein) was less than 1 µM throughout.
Consider `CC(C)c1cnnc(Nc2ccc3ncc(-c4cn(C)nc4NC4CNC4)cc3n2)c1` [Example 0826], for which the IC50 (in assay [1]; on human PI3Kα protein) was less than 1 µM each time.
Regarding `CC(C)c1cnnc(Nc2ccc3ncc(-c4cn(C)nc4NC4CN(C)C4)cc3n2)c1` [Example 0827, N-(5-isopropylpyridazin-3-yl)-7-(1-methyl-3-((1-methylazetidin-3-yl)amino)-1H-pyrazol-4-yl)-1,5-naphthyridine-2-amine], the IC50 (in assay [1]; on human PI3Kα protein) was less than 1 µM each time.
With `CC(C)c1cnnc(Nc2ccc3ncc(-c4cn(C)nc4Cc4ccccc4)cc3n2)c1` [Example 0828], the IC50 (in assay [1]; at human PI3Kα protein) was less than 1 µM throughout.
Consider `CC(C)c1cnnc(Nc2ccc3ncc(-c4cn(C)nc4Nc4ccccc4)cc3n2)c1` [Example 0829], for which the IC50 (in assay [1]; on human PI3Kα protein) was less than 1 µM each time.
Turning to `CC(C)c1cnnc(Nc2ccc3ncc(-c4cn(C)nc4NC4CCCCC4)cc3n2)c1` [Example 0830, 7-(3-(cyclohexylamino)-1-methyl-1H-pyrazol-4-yl)-N-(5-isopropylpyridazin-3-yl)-1,5-naphthyridine-2-amine], the IC50 (in assay [1]; on human PI3Kα protein) was less than 1 µM in each case.
Take `CC(C)c1cnnc(Nc2ccc3ncc(-c4cn(C)nc4NC4COC4)cc3n2)c1` [Example 0831]: the IC50 (in assay [1]; at human PI3Kα protein) was less than 1 µM in each case.
As to `CC(C)c1cnnc(Nc2ccc3ncc(-c4cn(C)nc4NC4CCOCC4)cc3n2)c1` [Example 0832], the IC50 (in assay [1]; on human PI3Kα protein) was less than 1 µM each time.
For `CC(C)c1cnnc(Nc2ccc3ncc(-c4cn(C)nc4NCc4cccnc4)cc3n2)c1` [Example 0833], the IC50 (in assay [1]; on human PI3Kα protein) was less than 1 µM in each case.
Take `CC(C)c1cnnc(Nc2ccc3ncc(-c4cn(C)nc4NCc4ccccn4)cc3n2)c1` [Example 0834]: the IC50 (in assay [1]; at human PI3Kα protein) was less than 1 µM throughout.
Consider `CC(C)c1cnnc(Nc2ccc3ncc(-c4cn(C)nc4NCc4ccncc4)cc3n2)c1` [Example 0835], for which the IC50 (in assay [1]; at human PI3Kα protein) was less than 1 µM throughout.
Take `CC(C)c1cnnc(Nc2ccc3ncc(-c4cn(C)nc4NCc4cnn(C)c4)cc3n2)c1` [Example 0836]: the IC50 in assay [1] is 1 to 10 µM; on human PI3Kα protein, less than 1 µM.
Regarding `CC(C)c1cnnc(Nc2ccc3ncc(-c4cc(-c5ccccn5)nn4C)cc3n2)c1` [Example 0837, N-(5-isopropylpyridazin-3-yl)-7-(1-methyl-3-(pyridin-2-yl)-1H-pyrazol-5-yl)-1,5-naphthyridine-2-amine], the IC50 in assay [1] is less than 1 µM; at human PI3Kα protein, 1 to 10 µM.
For `CC(C)c1cnnc(Nc2ccc3ncc(-c4cn(C)nc4-c4ccccn4)cc3n2)c1` [Example 0838, N-(5-isopropylpyridazin-3-yl)-7-(1-methyl-3-(pyridin-2-yl)-1H-pyrazol-4-yl)-1,5-naphthyridine-2-amine], the IC50 (in assay [1]; on human PI3Kα protein) was less than 1 µM in each case.
In the case of `Cc1ccc(S(=O)(=O)Nc2cnc3ccc(Nc4cc(C(C)C)cnn4)nc3c2)cc1` [Example 0839, N-(6-((5-isopropylpyridazin-3-yl)amino)-1,5-naphthyridin-3-yl)-4-methylbenzene sulfonamide], the IC50 in assay [1] lay in the range of 1 to 10 µM; at human PI3Kα protein, 10 to 50 µM.
On the same counts, the results for `CC(C)c1cnnc(Nc2ccc3ncc(NS(C)(=O)=O)cc3n2)c1` [Example 0840, N-(6-((5-isopropylpyridazin-3-yl)amino)-1,5-naphthyridin-3-yl)methane sulfonamide] are 1 to 10 µM and 1 to 10 µM.
For `CC(C)c1cnnc(Nc2ccc3ncc(N(C)S(C)(=O)=O)cc3n2)c1` [Example 0841, N-(6-((5-isopropylpyridazin-3-yl)amino)-1,5-naphthyridin-3-yl)-N-methylmethane sulfonamide], in that order: 1 to 10 µM and 1 to 10 µM.
For `CC(C)c1cnnc(Nc2ccc3ncc(N4CCN(C)CC4)cc3n2)c1` [Example 0842, N-(5-isopropylpyridazin-3-yl)-7-(4-methylpiperazin-1-yl)-1,5-naphthyridine-2-amine], in that order: 1 to 10 µM and 1 to 10 µM.
Turning to `CC(C)c1cnnc(Nc2ccc3ncc(-c4cn(C)nc4-c4ccnnc4)cc3n2)c1` [Example 0843, N-(5-isopropylpyridazin-3-yl)-7-(1-methyl-3-(pyridazin-4-yl)-1H-pyrazol-4-yl)-1,5-naphthyridine-2-amine], the IC50 (in assay [1]; on human PI3Kα protein) was less than 1 µM each time.
Take `CC(C)c1cnnc(Nc2ccc3ncc(-c4cn(C)nc4N4CCOCC4)cc3n2)c1` [Example 0844]: the IC50 (in assay [1]; on human PI3Kα protein) was less than 1 µM in each case.
`CC(C)c1cnnc(Nc2ccc3ncc(N4CCCCC4)cc3n2)c1` [Example 0845, N-(5-isopropylpyridazin-3-yl)-7-(piperidin-1-yl)-1,5-naphthyridine-2-amine]: the IC50 is less than 1 µM in assay [1] and 1 to 10 µM on human PI3Kα protein.
On the same counts, the results for `CC(C)c1cnnc(Nc2ccc3ncc(N4CCCC4)cc3n2)c1` [Example 0846, N-(5-isopropylpyridazin-3-yl)-7-(pyrrolidin-1-yl)-1,5-naphthyridine-2-amine] are less than 1 µM and 1 to 10 µM.
As to `CC(C)c1cnnc(Nc2ccc3ncc(N4CCC4)cc3n2)c1` [Example 0847, 7-(Azetidin-1-yl)-N-(5-isopropylpyridazin-3-yl)-1,5-naphthyridine-2-amine], the values for the IC50 (in assay [1]; at human PI3Kα protein) were less than 1 µM and 1 to 10 µM, respectively.
For the compound `Cc1nn(C)cc1-c1cnc2ccc(Nc3cc(C(C)C)no3)nc2c1` [Example 0848, N-(7-(1,3-dimethyl-1H-pyrazol-4-yl)-1,5-naphthyridin-2-yl)-3-isopropylisoxazole-5-amine], the IC50 (in assay [1]; at human PI3Kα protein) was 1 to 10 µM each time.
As for `Cc1nc2ccc(Nc3cc(C(C)C)cnn3)nc2cc1-c1cnn(C)c1` [Example 0849, N-(5-isopropylpyridazin-3-yl)-6-methyl-7-(1-methyl-1H-pyrazol-4-yl)-1,5-naphthyridine-2-amine], the IC50 in assay [1] was less than 1 µM; at human PI3Kα protein, 1 to 10 µM.
In the case of `Cc1c(-c2cnn(C)c2)cnc2ccc(Nc3cc(C(C)C)cnn3)nc12` [Example 0850, N-(5-isopropylpyridazin-3-yl)-8-methyl-7-(1-methyl-1H-pyrazol-4-yl)-1,5-naphthyridine-2-amine], the IC50 (in assay [1]; at human PI3Kα protein) was less than 1 µM each time.
For `Cc1nc2ccc(Nc3cc(C(C)C)cnn3)nc2cc1-c1cn(C)nc1C` [Example 0851, 7-(1,3-Dimethyl-1H-pyrazol-4-yl)-N-(5-isopropylpyridazin-3-yl)-6-methyl-1,5-naphthyridine-2-amine], the results for the IC50 (in assay [1]; on human PI3Kα protein) were less than 1 µM and 1 to 10 µM, respectively.
Turning to `Cc1nn(C)cc1-c1cnc2ccc(Nc3cc(C(C)C)cnn3)nc2c1C` [Example 0852, 7-(1,3-Dimethyl-1H-pyrazol-4-yl)-N-(5-isopropylpyridazin-3-yl)-8-methyl-1,5-naphthyridine-2-amine], the IC50 (in assay [1]; on human PI3Kα protein) was less than 1 µM throughout.
With `COC1CN(c2cnc3ccc(Nc4cc(C(C)C)cnn4)nc3c2)C1` [Example 0853], the IC50 (in assay [1]; on human PI3Kα protein) was less than 1 µM in each case.
As to `CC(C)c1cnnc(Nc2ccc3ncc(N4CC(F)(F)C4)cc3n2)c1` [Example 0854], the IC50 (in assay [1]; on human PI3Kα protein) was less than 1 µM each time.
For the compound `CC(C)c1cnnc(Nc2ccc3ncc(N4CC5(COC5)C4)cc3n2)c1` [Example 0855], the IC50 (in assay [1]; at human PI3Kα protein) was less than 1 µM in each case.
As to `CC(C)c1cnnc(Nc2ccc3ncc(N4CC5(CCO5)C4)cc3n2)c1` [Example 0856], the values for the IC50 (in assay [1]; on human PI3Kα protein) were less than 1 µM and 1 to 10 µM, respectively.
